Columns and labels:
[1] = tested on: LNCaP; test: cells; conditions: Homo sapiens, 144 h
Description: Growth inhibition of human LNCAP cells after 6 days

[2] = target: Lysine-specific histone demethylase 1A (Homo sapiens, UniProt O60341)
Description: Inhibition of human recombinant His-tagged full length LSD1 expressed in Escherichia coli BL21 (DE3) assessed as inactivation constant preincubated for 20 mins with substrate measured after 30 mins by AmplexRed based fluorescence quenching assay

Ki [2] [µM]	SMILES	IC50 [1] [µM]
	COc1ccc([C@@H]2C[C@H]2N)cc1	1710
	N[C@@H]1C[C@H]1c1ccc(Br)cc1	111
	N[C@@H]1C[C@H]1c1cccc(Br)c1	129
	N[C@@H]1C[C@H]1c1ccccc1Br	5870
	N[C@@H]1C[C@H]1c1ccc(-c2ccccc2)cc1	110
> 100	N[C@@H]1C[C@H]1c1cccc(-c2ccccc2)c1	226
> 100	N[C@@H]1C[C@H]1c1ccccc1-c1ccccc1	181
